Data published in US20240307575A1, “METHODS FOR […] MATTER” (priority 2021, published 2024).
Where “and” joins values, the source holds several entries; their conditions need not be identical. Equal values may be shown once. Read-outs that look alike come from different tables or passages of the source.

How the values were obtained:
[1] = system: Yeast & Molds; assay: Example 4: yeast and molds count after NaDCC and/or H2O2 pulses; assay type: cell-based; conditions: control 152,000
Protocol: (§1) Aqueous solutions of NaDCC at variating concentrations from 1% [w/w] up to 5% [w/w] were prepared. […] Table 5 describes various sterilants and their effects:
(§2) Each pulse with disinfectant consisted of vacuum to 1 mbar, then introduction of a sterilant to 100 mbar, 6 minutes of keeping the sterilant at that pressure, introduction of air to 500 mbar, then vacuum.

[2] = system: Total pathogen; assay: Example 4: total pathogen count after NaDCC and/or H2O2 pulses; assay type: cell-based; conditions: for Total pathogen Count: control 490,000; for Fold-Reduction: versus control
Protocol: as §1, §2

[3] = system: total count; conditions: for Total Count: HPO to 60 mbar 6 minutes, air 500 mbar 6 minutes, 40°, control 1,350,000; for Total Count Fold-Reduction: versus control
Protocol: (§3) For two of the samples, no preheating was performed, and for two of the samples, preheating was performed. Preheating involved warming the plant matter in the chamber at 40° C. for 5 minutes. Either one or two pulses of sterilant were performed. All pulses were performed at 40°. Before each pulse, the pressure in the chamber was reduced to 1 mbar.
(§4) Then, air was added and pressure was maintained at 500 mbar for 6 minutes.

[4] = system: Yeast & Mold; conditions: for Yeast & Mold: HPO to 60 mbar 6 minutes, air 500 mbar 6 minutes, 40°, control 1,150,000; for Yeast & Mold Fold-Reduction: versus control
Protocol: as §3, §4

[5] = system: yeasts & molds; assay: Example 2, Table 3: yeast and mold count after hydrogen peroxide pulses with air or ozone, with or without ozone preheat; assay type: cell-based; conditions: HPO to 75 mbar + air to 500 mbar 40° C. one pulse, control 1,950
Protocol: (§5) In table 3, the samples were all preheated to, 40° C. Some of the samples, indicated “O3 preheat” were preheated in the presence of ozone at atmospheric pressure. […] Air was subsequently introduced to a pressure of 500 mbar. Then the chamber was evacuated.

[6] = system: total count; assay: Example 2, Table 3: total count after hydrogen peroxide pulses with air or ozone, with or without ozone preheat; assay type: cell-based; conditions: HPO to 75 mbar + air to 500 mbar 40° C. one pulse, control 130,000
Protocol: as §5

[7] = system: Microbe mix (all 4); conditions: 15% [w/w] hydrogen peroxide vapor, mean of batches 1-3
Protocol: (§6) In this example, cannabis inflorescence (200 mg) was thoroughly sterilized, then inoculated by soaking in 30 ml of microbial suspension, using each of the microbes in the amounts described in table 7 below, including a microbe mix, consisting of a mixture of all 4 microbes in the table.
(§7) After soaking each sample of inflorescence in the respective microbial suspension, each sample was air dried in a laminar flow dryer overnight for 18 hours and refrigerated until sterilization was initiated. Inflorescence was sterilized 24, 48 and 72 hours post inoculation, designated batch 1, batch 2 and batch 3, respectively. Microbial load analysis was performed after each sterilization day. Samples were also inoculated, and not sterilized, to serve as controls. A saline solution was applied to some of the samples instead of a microbial suspension, to serve as a control.
(§8) Analysis of microbial count was performed to samples before and after sterilization, and each microbe count was determined using sub-samples of […] each from each sample, and was performed in triplicate. The sub-samples were ground in 20 ml of saline solution, seeded in a petri dish with agar, which were then incubated at 37° C. for 48 hours, for counting of colonies, to determine number of colony forming units (CFU) per cannabis sample. Logarithmic reduction of pathogen as compared to non-sterilized sample was determined.
(§9) Samples of cannabis inflorescence (200 mg) were introduced into a vacuum chamber in either a top tray or a middle tray. The top tray was located in the uppermost location in the chamber, where the highest temperature is measured. The temperature was set to be maintained at 50° C., however, due to the fact that heat rises within the chamber, and that sterilant solution was introduced to the chamber as a vapor having a temperature of about 140-150° C., in some of the experiments the temperature in the uppermost chamber reached 54° C.±1° C. and in some 58° C.±2° C. Two or three pulses of disinfection were performed for each sample, and the results are described in Table 8. In each pulse, pressure was reduced to 3±2 mbar. […] Then, air was added and pressure was maintained at 500 mbar for 6 minutes at that pressure. The air was then removed from the chamber and the pressure reduced to 3±2 mbar. This process constitutes one pulse. One or two additional pulses were performed for samples, for a total of two pulses per sample, or three pulses per sample. In the final pulse, after initiating a vacuum, air was then introduced and the chamber was […] to a pressure of 1 atmosphere.
(§10) For each pathogen, mean log reduction was calculated by log10 transformation of CFU values, analyzing each microbial treatment process separately. Sterilization processes were compared with a 1-way ANOVA on log transformed data.

[8] = system: Candida albicans; conditions: for mean log reduction: 15% [w/w] hydrogen peroxide vapor, mean of batches 1-3
Protocol: as §6, §7, §8, §9, §10

[9] = system: E. Coli; conditions: 15% [w/w] hydrogen peroxide vapor, mean of batches 1-3
Protocol: as §6, §7, §8, §9, §10

[10] = system: Pseudomonas aeruginosa; conditions: 15% [w/w] hydrogen peroxide vapor, mean of batches 1-3
Protocol: as §6, §7, §8, §9, §10

[11] = system: Aspergillus brasiliensis; conditions: for mean log reduction: 15% [w/w] hydrogen peroxide vapor, mean of batches 1-3
Protocol: as §6, §7, §8, §9, §10

[12] = system: total count; conditions: hydrogen peroxide solution 50% in water, control 208,800
Protocol: (§11) A control sample was used, which was not treated, to show microbial load before treatment.
(§12) In each of the trials above, the H2O2 solution was introduced over a period of 3 minutes until a pressure of 70-100 mbar, by introduction of 4 injections, each injection of 10 ml. […] Some of the batches indicating “vent 700” were slowly vented to 700 mbar with air.

[13] = system: yeast and mold; conditions: hydrogen peroxide solution 50% in water, 40° C. 40 ml + 1 m; control 20,800; listed as H2O2
Protocol: as §11, §12

[14] = Preheat (40° C. for 5 minutes), one pulse
[15] = Preheat (40° C. for 5 minutes), two pulses

O=c1nc([O-])n(Cl)c(=O)n1Cl.[Na+] [NaDCC, Sodium dichloroisocyanurate]
Yeast & Molds Count ([1]; NaDCC 1% [w/w], 1 pulse): 10,857 | Yeast & Molds Count ([1]; NaDCC 1% [w/w], 2 pulses): 5,553 | Yeast & Molds Count ([1]; NaDCC 2% [w/w], 1 pulse): 7,600 | Yeast & Molds Count ([1]; NaDCC 2% [w/w], 2 pulses): 3,436 | Yeast & Molds Count ([1]; NaDCC 5% [w/w], 1pulse): 10,133 | Yeast & Molds Count ([1]; NaDCC 5% [w/w], 2 pulses): 12,667 | Total pathogen Count ([2]; NaDCC 1% [w/w], 1 pulse): 35,100 | Fold-Reduction ([2]; NaDCC 1% [w/w], 1 pulse): 14 | Total pathogen Count ([2]; NaDCC 1% [w/w], 2 pulses): 17,900 | Fold-Reduction ([2]; NaDCC 1% [w/w], 2 pulses): 27 | Total pathogen Count ([2]; NaDCC 2% [w/w], 1 pulse): 24,500 | Fold-Reduction ([2]; NaDCC 2% [w/w], 1 pulse): 20 | Total pathogen Count ([2]; NaDCC 2% [w/w], 2 pulses): 11,075 | Fold-Reduction ([2]; NaDCC 2% [w/w], 2 pulses): 44 | Total pathogen Count ([2]; NaDCC 5% [w/w], 1pulse): 32,667 | Fold-Reduction ([2]; NaDCC 5% [w/w], 1pulse): 15 | Total pathogen Count ([2]; NaDCC 5% [w/w], 2 pulses): 40,833 | Fold-Reduction ([2]; NaDCC 5% [w/w], 2 pulses): 12

OO [hydrogen peroxide]
Total Count ([3]; No preheat, one pulse): 5,556 cfu/ml | Total Count Fold-Reduction ([3]; No preheat, one pulse): 243 | Total Count ([3]; No preheat, two pulses): 3,082 cfu/ml | Total Count Fold-Reduction ([3]; No preheat, two pulses): 438 | Total Count [3, 14]: 2,316 cfu/ml | Total Count [3, 15]: 1,028 cfu/ml | Total Count Fold-Reduction ([3]; Preheat, one pulse): 583 | Total Count Fold-Reduction ([3]; Preheat, two pulses): 1,313 | decontamination, reduction of microbes ([3]; pre-heating stage and two sterilant pulses combined): over 3 orders of magnitude | Yeast & Mold ([4]; No preheat, one pulse): 19,828 cfu/ml | Yeast & Mold Fold-Reduction ([4]; No preheat, one pulse): 58 | Yeast & Mold ([4]; No preheat, two pulses): 3,249 cfu/ml | Yeast & Mold Fold-Reduction ([4]; No preheat, two pulses): 354 | Yeast & Mold [4, 14]: 3,433 cfu/ml | Yeast & Mold [4, 15]: 415 cfu/ml | Yeast & Mold Fold-Reduction ([4]; Preheat, one pulse): 335 | Yeast & Mold Fold-Reduction ([4]; Preheat, two pulses): 2,770 | Y&M ([5]; sample weight 100 gr): 100 cfu/ml | Y&M ([5]; sample weight 300 gr): 30 cfu/ml | Yeast & Molds Count ([1]; 50% H2O2, 2 pulses): 2,492 | TC ([6]; sample weight 100 gr): 11,000 cfu/ml | TC ([6]; sample weight 300 gr): 48,000 cfu/ml | mean log reduction ([7]; 2 pulses, Middle tray): 2.8 | mean log reduction ([7]; 2 pulses, Top tray): 5.5 | mean log reduction ([7]; 3 pulses, Middle tray): 5.1 | mean log reduction ([7]; 3 pulses, Top tray): 7.0 | mean log reduction ([8]; 2 pulses, Middle tray): 2.8 | mean log reduction ([8]; 2 pulses, Top tray): 6.3 | mean log reduction ([8]; 3 pulses, Middle tray): 6.0 | mean log reduction ([8]; 3 pulses, Top tray): 6.3 | reduction in microbial count ([8]; top tray, both 2 and 3 pulses): ≥ 6 fold | mean log reduction ([9]; 2 pulses, Middle tray): 3.5 | mean log reduction ([9]; 2 pulses, Top tray): 3.5 | mean log reduction ([9]; 3 pulses, Middle tray): 4.3 | mean log reduction ([9]; 3 pulses, Top tray): 4.8 | mean log reduction ([10]; 2 pulses, Middle tray): 3.7 | mean log reduction ([10]; 2 pulses, Top tray): 5.3 | mean log reduction ([10]; 3 pulses, Middle tray): 4.7 | mean log reduction ([10]; 3 pulses, Top tray): 7.2 | mean log reduction ([11]; 2 pulses, Middle tray): 2.0 | mean log reduction ([11]; 2 pulses, Top tray): 3.3 | mean log reduction ([11]; 3 pulses, Middle tray): 2.2 | mean log reduction ([11]; 3 pulses, Top tray): 3.3 | reduction in microbial count after treatment ([11]; sterilized at 24 hours post inoculation): 5 log | Total pathogen Count ([2]; 50% H2O2, 2 pulses): 8,033 | Fold-Reduction ([2]; 50% H2O2, 2 pulses): 61 | TC ([12]; 30° C. 40 ml, 200 g inflorescence): 31,000 cfu/ml | TC ([12]; 40° C. 40 ml + 1 m + Vent700, listed as H2O2): 12,000 cfu/ml and 19,000 cfu/ml | TC ([12]; 40° C. 40 ml, listed as H2O2): 15,000 cfu/ml and 10,000 cfu/ml | Y&M [13]: 2,600 cfu/ml and 2,500 cfu/ml
